Values joined by “and” are separate entries in the source; they are usually repeats but may differ in a detail not shown here. Equal entries are not always repeated.
Tests used:
Plasmodium chabaudi = test: Experimental Plasmodium chabaudi infection, survival and parasitemia; assay type: in vivo, Plasmodium chabaudi (host: C57BL/6 mice); conditions: for Survival/Number of animals: 21 days observation
[1] = system: TH-1 and TH-2 types cytokines (IL-2, IFN-gamma, IL-4, and IL-10); test: Cytokine dosage (sandwich-ELISA, Con-A stimulated spleen culture supernatant) in experimental L. monocytogenes infection; assay type: in vivo, BALB/c mice
L. monocytogenes [2] = test: Experimental L. monocytogenes infection, lethal dose, survivors at 30 days; assay type: in vivo, Listeria monocytogenes (host: BALB/c mice); conditions: BALB/c mice, n = 10 per group, 2×10^6 L. monocytogenes i.p.; Immunomodulator 100 mg/kg single dose i.p.; Rifampicine 2 mg/kg and Gentamicin 2 mg/kg × 5 days
M. tuberculosis-Erdman = system: M. tuberculosis-Erdman; design: species or system Mycobacterium tuberculosis (host: C57BL/6 mice); conditions: mouse, in vivo
L. monocytogenes [3] = conditions: experimental animals; PI0305373-3, U.S. Ser. No. 10/978,683, EPA 0426250.3.2405; cited from earlier work
HCV subtype I-b = test: Clinical trial in hepatitis C patients, laboratorial parameters; conditions: two patients (A and D) of 5; Immunomodulator 25 mg weekly i.m., 12 months; no treatment interruption
Candida sp = conditions: 20 HIV/AIDS patients per group, Fluconazole 400 mg/day × 5 days oral, Immunomodulator 10 mg/day × 5 days i.m.
Herpes sp = test: Patients with recurrent herpetic lesions (cutaneous and genital), symptom recurrence; assay type: in vivo, Herpes virus (host: human patients); conditions: Acyclovir alone, oral, 3 daily doses of 200 mg, 10 days
[4] = Group D: Chloroquine 5 mg/kg single i.p. dose
[5] = Group E: Chloroquine 2 mg/kg single i.p. dose
[6] = Control (non-infected) BALB/c mice, Immunomodulator 5 mg/kg/day i.p. 7 days
[7] = Infected 48 h (2×10^4 L. monocytogenes i.p.), Immunomodulator 5 mg/kg/day i.p. 7 days prior to inoculation
[8] = Infected 72 h (2×10^4 L. monocytogenes i.p.), Immunomodulator 5 mg/kg/day i.p. 7 days prior to inoculation
[9] = Group G: Immunomodulator 100 mg/kg i.p. single dose

CCN(CC)CCCC(C)Nc1ccnc2cc(Cl)ccc12 (stereo not drawn) [Chloroquine, N′-(7-chloroquinolin-4-yl)-N,N-diethyl-pentane-1,4-Diamine]
Survival/Number of animals (Plasmodium chabaudi; Group B: Chloroquine 15 mg/kg single i.p. dose): 6-6 | Parasitemia (%) ± Standart deviation (SD) (Plasmodium chabaudi; Group B: Chloroquine 15 mg/kg single i.p. dose, day 5): 17 ± 0.7 (day 5) % | Parasitemia (%) ± Standart deviation (SD) (Plasmodium chabaudi; Group B: Chloroquine 15 mg/kg single i.p. dose, day 21): 8 ± 1.2 (day 21% | increase in survival rate compared to the control groups (Plasmodium chabaudi; Group D: Chloroquine 5 mg/kg): 2 days | Day of death (Plasmodium chabaudi; [4]): 10 days | Survival/Number of animals (Plasmodium chabaudi; [4]): 0-6 | Parasitemia (%) ± Standart deviation (SD) (Plasmodium chabaudi; Group D: Chloroquine 5 mg/kg single i.p. dose, day 5): 65 ± 0.9 (day 5) % | difference in the survival rate to the control groups (Plasmodium chabaudi; Group E: Chloroquine 2 mg/kg): no significant difference | Day of death (Plasmodium chabaudi; [5]): 8 days | Survival/Number of animals (Plasmodium chabaudi; [5]): 0-6 | Parasitemia (%) ± Standart deviation (SD) (Plasmodium chabaudi; Group E: Chloroquine 2 mg/kg single i.p. dose, day 5): 89 ± 1.3 (day 5) %

proteic aggregate of ammonium and magnesium phospholinoleate-palmitoleate anhydride [Immunomodulator]
IFN-γ [1, 6]: 1012 ± 41 pg/mL | Il-2 [1, 6]: 167 ± 11 pg/mL | Il-4 [1, 6]: 63 ± 19 pg/mL | Il-10 [1, 6]: 227 ± 37 pg/mL | IFN-γ [1, 7]: 1691 ± 62 pg/mL | Il-2 [1, 7]: 206 ± 31 pg/mL | Il-4 [1, 7]: 75 ± 18 pg/mL | Il-10 [1, 7]: 224 ± 17 pg/mL | IFN-γ [1, 8]: 1884 ± 70 pg/mL | Il-2 [1, 8]: 248 ± 34 pg/mL | Il-4 [1, 8]: 73 ± 11 pg/mL | Il-10 [1, 8]: 221 ± 37 pg/mL | % surviving animals - 30 days (L. monocytogenes [2]): 30% | Number surviving animals - 30 days (L. monocytogenes [2]): 3 | Bacillary load - Lung + Standard Deviation (SD) (M. tuberculosis-Erdman): 5.42 ± 0.59 and 4.85 ± 0.46 | Bacillary load - Spleen + Standard Deviation (SD) (M. tuberculosis-Erdman): 5.25 ± 0.61 and 4.93 ± 0.47 | Day of death (Plasmodium chabaudi; Group F: Immunomodulator 5 mg/kg × 5 days): 11 days | Survival/Number of animals (Plasmodium chabaudi; Group F: Immunomodulator 5 mg/kg × 5 days, start 1 day after infection): 0-6 | Parasitemia (%) ± Standart deviation (SD) (Plasmodium chabaudi; Group F: Immunomodulator 5 mg/kg × 5 days, day 5): 54 ± 0.8 (day 5) % | Day of death (Plasmodium chabaudi; [9]): 12 days | Survival/Number of animals (Plasmodium chabaudi; [9]): 0-6 | Parasitemia (%) ± Standart deviation (SD) (Plasmodium chabaudi; Group G: Immunomodulator 100 mg/kg i.p. single dose, day 5): 52 ± 0.9 (day 5) % | increase in survival rate in relation to the control animals (Plasmodium chabaudi; Groups F and G: Immunomodulator 5 mg/kg × 5 days and 100 mg/kg single dose): 3 to 4 days | protection against infection by lethal dose of L. monocytogenes (L. monocytogenes [3]): partial protection | tolerance at the site of injection (HCV subtype I-b): mild pain and discomfort at the site of injection

OC(Cn1cncn1)(Cn1cncn1)c1ccc(F)cc1F [Antifungal]
% Respondents (Candida sp): 100% | Symptoms Average recurrence period (Candida sp; six months follow-up): 45 days

Nc1nc(=O)c2ncn(COCCO)c2[nH]1 [Acyclovir, 2-amino-9-[(2-hydroxyethoxy)methyl]-3,9-dihydro-6H-purin-6-one]
average recurrence period of time of the disease symptoms (Herpes sp; first stage, 30 patients): 2 months | average recurrence period of symptoms (Herpes sp; second stage, 15 patients): 2 months

NNC(=O)c1ccncc1 [INH, pyridine-4-carbohydrazide, reference compound]
Bacillary load - Lung + Standard Deviation (SD) (M. tuberculosis-Erdman): 3.52 ± 0.65 | Bacillary load - Spleen + Standard Deviation (SD) (M. tuberculosis-Erdman): 4.82 ± 0.62

— patent US8889153B2, “Combination of immunomodulator and anti-pathogenic agent” (priority 2008, dated 2014)
